Assay results taken from US20260274807A1 (University of Health Sciences and Pharmacy in St. Louis, priority 2023, published 2026).

Experiments:
[1] = molecular target: T1, ERRγ (Homo sapiens, UniProt P62508); assay: ERRE luciferase reporter assay in HEK293 cells transfected with pcDNA3.1 ERRγ; format: cell-based; parameters: key to EC50 (ERRγ) μM: * <1 μM; ** 1-5 μM; *** >5 μM; i.a. (inactive); settings: HEK293 cells transfected with ERRE reporter construct and pcDNA3.1 ERRγ; compound for 24 hours; luciferase activity
T1 construct: expressed in transfected cells; host or cells: HEK293
T1 sequence (P62508 1-458): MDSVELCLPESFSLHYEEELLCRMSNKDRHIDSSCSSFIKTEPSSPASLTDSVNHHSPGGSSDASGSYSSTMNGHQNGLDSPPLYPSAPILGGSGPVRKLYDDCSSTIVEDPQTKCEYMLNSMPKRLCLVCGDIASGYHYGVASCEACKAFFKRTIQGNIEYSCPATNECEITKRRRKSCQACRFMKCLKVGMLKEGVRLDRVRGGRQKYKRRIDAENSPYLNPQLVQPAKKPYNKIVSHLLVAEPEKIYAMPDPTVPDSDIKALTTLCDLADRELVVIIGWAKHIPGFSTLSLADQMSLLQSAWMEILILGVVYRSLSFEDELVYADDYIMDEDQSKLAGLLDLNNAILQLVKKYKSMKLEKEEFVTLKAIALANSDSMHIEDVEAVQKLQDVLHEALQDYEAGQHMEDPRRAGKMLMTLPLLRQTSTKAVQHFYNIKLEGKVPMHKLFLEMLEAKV
Experimental: (§1) HEK293 cells were maintained in Dulbecco's modified Eagles medium (DMEM) supplemented with 10% fetal bovine serum at 37° C. under […]. […] Cells were transfected with ERRE reporter construct and pcDNA3.1 ERRα or ERRγ. Twenty-four-hours post-transfection, the cells were treated with vehicle or compound (various concentrations) for 24 hours (4 wells per dose). Luciferase activity was measured using the One-Glo Tox luciferase reporter assay system (Promega) and EC50s were calculated using GraphPad Prism software.

[2] = molecular target: T2, ERRα (Homo sapiens, UniProt P11474); assay: ERRE luciferase reporter assay in HEK293 cells transfected with pcDNA3.1 ERRα; format: cell-based; parameters: key to EC50 (ERRα) μM: * <1 μM; ** 1-5 μM; *** >5 μM; i.a. (inactive); settings: HEK293 cells transfected with ERRE reporter construct and pcDNA3.1 ERRα; compound for 24 hours; luciferase activity
T2 construct: expressed in transfected cells; host or cells: HEK293
T2 sequence (P11474 1-423): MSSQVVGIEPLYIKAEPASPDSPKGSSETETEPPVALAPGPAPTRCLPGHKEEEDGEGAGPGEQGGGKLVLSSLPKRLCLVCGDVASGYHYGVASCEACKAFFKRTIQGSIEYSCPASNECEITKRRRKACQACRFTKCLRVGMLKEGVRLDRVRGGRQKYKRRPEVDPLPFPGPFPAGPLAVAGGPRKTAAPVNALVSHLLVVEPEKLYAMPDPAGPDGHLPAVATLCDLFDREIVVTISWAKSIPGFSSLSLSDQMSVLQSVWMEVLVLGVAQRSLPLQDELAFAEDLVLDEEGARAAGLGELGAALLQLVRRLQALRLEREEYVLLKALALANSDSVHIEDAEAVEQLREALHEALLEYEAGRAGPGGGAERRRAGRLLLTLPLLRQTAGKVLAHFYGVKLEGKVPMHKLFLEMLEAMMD
Experimental: as §1

SMILES	EC50 [1] [µM]	EC50 [2] [µM]	EC50 (ERRγ) μM [1]	EC50 (ERRα) μM [2]
COc1ccc(-c2nnc(-c3ccccc3)s2)c([N+](=O)[O-])c1 [Entry 1036, 2-(4-methoxy-2-nitrophenyl)-5-phenyl-1,3,4-thiadiazole]	< 1	< 1	–	–
Cc1ccc(-c2nnc(-c3ccco3)o2)cc1 [Entry 31, 2-(furan-2-yl)-5-(p-tolyl)-1,3,4-oxadiazole]	< 1	< 1	–	–
FC(F)(F)c1ccc(-c2nnc(-c3ccccn3)s2)cc1 [Entry 1009, 2-(pyridin-2-yl)-5-(4-(trifluoromethyl)phenyl)-1,3,4-thiadiazole]	< 1	< 1	–	–
CC(C)(C)c1ccc(-c2nnc(-c3ccccc3N)o2)cc1 [Entry 75, 2-(5-(4-(tert-butyl)phenyl)-1,3,4-oxadiazol-2-yl)aniline]	< 1	< 1	–	–
CC(C)(C)c1ccc(-c2nnc(-c3ccccc3N)s2)cc1 [Entry 1027, 2-(5-(4-(tert-butyl)phenyl)-1,3,4-thiadiazol-2-yl)aniline]	< 1	< 1	–	–
Nc1cc(Br)ccc1-c1nnc(-c2ccccc2)o1 [Entry 72, 5-bromo-2-(5-phenyl-1,3,4-oxadiazol-2-yl)aniline]	1 to 5	< 1	–	–
FC(F)(F)c1cccc(-c2nnc(-c3ccccc3)s2)c1 [Entry 1014, 2-phenyl-5-(3-(trifluoromethyl)phenyl)-1,3,4-thiadiazole]	1 to 5	1 to 5	–	–
COc1ccc(-c2nnc(-c3ccc(C)o3)s2)cc1 [Entry 1020, 2-(4-methoxyphenyl)-5-(5-methylfuran-2-yl)-1,3,4-thiadiazole]	< 1	< 1	–	–
COc1cccc(-c2nnc(-c3ccccc3)o2)c1[N+](=O)[O-] [Entry 88, 2-(3-methoxy-2-nitrophenyl)-5-phenyl-1,3,4-oxadiazole]	< 1	< 1	–	–
COc1ccc(-c2nnc(-c3cccc([N+](=O)[O-])c3)o2)cc1 [Entry 26, 2-(4-methoxyphenyl)-5-(3-nitrophenyl)-1,3,4-oxadiazole]	< 1	1 to 5	–	–
O=[N+]([O-])c1ccccc1-c1nnc(-c2ccc(C(F)(F)F)cc2)o1 [Entry 50, 2-(2-nitrophenyl)-5-(4-(trifluoromethyl)phenyl)-1,3,4-oxadiazole]	1 to 5	1 to 5	–	–
COc1ccc(-c2nnc(-c3ccccc3)o2)c(N)c1 [Entry 71, 5-methoxy-2-(5-phenyl-1,3,4-oxadiazol-2-yl)aniline]	< 1	< 1	–	–
FC(F)(F)c1ccc(-c2nnc(-c3ccnc4ccccc34)o2)cc1 [Entry 47, 2-(quinolin-4-yl)-5-(4-(trifluoromethyl)phenyl)-1,3,4-oxadiazole]	> 5	> 5	–	–
Cc1ccc(-c2nnc(-c3cccc4ccccc34)s2)cc1 [Entry 1043, 2-(naphthalen-1-yl)-5-(p-tolyl)-1,3,4-thiadiazole]	< 1	< 1	–	–
O=[N+]([O-])c1ccc(-c2nnc(-c3ccccc3[N+](=O)[O-])o2)cc1 [Entry 11, 2-(2-nitrophenyl)-5-(4-nitrophenyl)-1,3,4-oxadiazole]	1 to 5	1 to 5	–	–
COc1ccc(-c2nnc(NC(=O)c3ccccc3)s2)cc1 [Entry 1033, N-(5-(4-methoxyphenyl)-1,3,4-thiadiazol-2-yl)benzamide]	–	–	i.a.	i.a.
COC(=O)c1cccc(-c2nnc(-c3ccccc3Cl)s2)c1 [Entry 1050, methyl 3-(5-(2-chlorophenyl)-1,3,4-thiadiazol-2-yl)benzoate]	< 1	< 1	–	–
FC(F)(F)c1ccc(-c2nnc(-c3cccs3)o2)cc1 [Entry 46, 2-(thiophen-2-yl)-5-(4-(trifluoromethyl)phenyl)-1,3,4-oxadiazole]	1 to 5	1 to 5	–	–
COc1ccc(-c2nnc(-c3ccc(C(F)(F)F)cc3)o2)cc1 [Entry 55, 2-(4-methoxyphenyl)-5-(4-(trifluoromethyl)phenyl)-1,3,4-oxadiazole]	–	–	i.a.	i.a.
COc1ccc([N+](=O)[O-])c(-c2nnc(-c3ccccc3)o2)c1 [Entry 87, 2-(5-methoxy-2-nitrophenyl)-5-phenyl-1,3,4-oxadiazole]	> 5	1 to 5	–	–

SMILES	EC50 [1] [µM]	EC50 [2] [µM]	EC50 (ERRγ) μM [1]	EC50 (ERRα) μM [2]
Cc1ccc(-c2nnc(-c3ccccc3Cl)s2)cc1 [Entry 1003, 2-(2-chlorophenyl)-5-(p-tolyl)-1,3,4-thiadiazole]	< 1	< 1	–	–
COC(=O)c1cccc(-c2nnc(-c3ccc(C(F)(F)F)cc3)s2)c1 [Entry 1064, methyl 3-(5-(4-(trifluoromethyl)phenyl)-1,3,4-thiadiazol-2-yl)benzoate]	1 to 5	> 5	–	–
FC(F)(F)c1cccc(-c2nnc(-c3ccnc4ccccc34)o2)c1 [Entry 59, 2-(quinolin-4-yl)-5-(3-(trifluoromethyl)phenyl)-1,3,4-oxadiazole]	1 to 5	< 1	–	–
c1ccc(-c2nnc(-c3cccs3)o2)cc1 [Entry 3]	< 1	< 1	–	–
O=[N+]([O-])c1c(Cl)cccc1-c1nnc(-c2ccccc2)o1 [Entry 90, 2-(3-chloro-2-nitrophenyl)-5-phenyl-1,3,4-oxadiazole]	1 to 5	1 to 5	–	–
Nc1ccc(-c2nnc(-c3ccccc3)o2)cc1 [Entry 70, 4-(5-phenyl-1,3,4-oxadiazol-2-yl)aniline]	< 1	< 1	–	–
c1ccc(-c2nnc(C3CCCCC3)s2)cc1 [Entry 1006, 2-cyclohexyl-5-phenyl-1,3,4-thiadiazole]	< 1	< 1	–	–
O=[N+]([O-])c1ccc(-c2nnc(-c3cccc([N+](=O)[O-])c3)o2)cc1 [Entry 12, 2-(3-nitrophenyl)-5-(4-nitrophenyl)-1,3,4-oxadiazole]	1 to 5	1 to 5	–	–
O=[N+]([O-])c1ccccc1-c1nnc(-c2ccccc2)o1 [Entry 80, 2-(2-nitrophenyl)-5-phenyl-1,3,4-oxadiazole]	1 to 5	1 to 5	–	–
Cc1cccc(-c2nnc(-c3ccccc3Cl)s2)c1 [Entry 1041, 2-(2-chlorophenyl)-5-(m-tolyl)-1,3,4-thiadiazole]	< 1	> 5	–	–
COc1ccc(-c2nnc(-c3ccc(C(F)(F)F)cc3)s2)cn1 [Entry 1071, 2-(6-methoxypyridin-3-yl)-5-(4-(trifluoromethyl)phenyl)-1,3,4-thiadiazole]	1 to 5	< 1	–	–
Clc1ccc(-c2nnc(-c3ccccc3)o2)cc1 [Entry 2]	< 1	< 1	–	–
c1ccc(-c2nnc(-c3cnccn3)s2)cc1 [Entry 1010, 2-phenyl-5-(pyrazin-2-yl)-1,3,4-thiadiazole]	< 1	< 1	–	–
O=[N+]([O-])c1cc(Br)ccc1-c1nnc(-c2ccccc2)s1 [Entry 1037, 2-(4-bromo-2-nitrophenyl)-5-phenyl-1,3,4-thiadiazole]	< 1	1 to 5	–	–
COc1ccc(-c2nnc(-c3ccccc3[N+](=O)[O-])s2)cc1 [Entry 1021, 2-(4-methoxyphenyl)-5-(2-nitrophenyl)-1,3,4-thiadiazole]	< 1	< 1	–	–
Cc1ccc(-c2nnc(-c3ccc(Cl)cc3)s2)cc1 [Entry 1048, 2-(4-chlorophenyl)-5-(p-tolyl)-1,3,4-thiadiazole]	< 1	< 1	–	–
Cc1ccc(-c2nnc(-c3ccc4ccccc4n3)s2)cc1 [Entry 1042, 2-(quinolin-2-yl)-5-(p-tolyl)-1,3,4-thiadiazole]	< 1	> 5	–	–
COc1ccc(-c2nnc(-c3ccco3)o2)cc1 [Entry 18, 2-(furan-2-yl)-5-(4-methoxyphenyl)-1,3,4-oxadiazole]	< 1	< 1	–	–
O=[N+]([O-])c1ccc(-c2nnc(-c3cccc(C(F)(F)F)c3)o2)cc1 [Entry 64, 2-(4-nitrophenyl)-5-(3-(trifluoromethyl)phenyl)-1,3,4-oxadiazole]	> 5	–	–	–
